Laboratory results: ChEMBL document CHEMBL4265874 (Eur J Med Chem, 2017)
One block for each compound: values may come before it.

Tests used:
in vivo [1] = conditions: rat, brain / plasma
Description: Ratio of fAUC in brain to plasma in rat

in vitro [2] = conditions: dog, MDCK
Description: (§1) Intrinsic absorptive permeability from basolateral side to apical side of dog RRCK cells

in vitro [3] = conditions: dog, MDCK; remark: listed apart in the source
Description: (§2) Intrinsic absorptive permeability from apical side to basolateral side of dog RRCK cells

in vivo [4] = conditions: rat, CSF / free plasma
Description: Ratio of AUC in CSF to free plasma in rat

[5] = target: Proto-oncogene tyrosine-protein kinase ROS (Homo sapiens, UniProt P08922, G2032R)
[6] = dog, mdckii-le
Description: as §2

[7] = dog, mdckii-le; remark: listed apart in the source
Description: as §1

in vitro [8] = conditions: human, liver microsomes
Description: Intrinsic clearance in human liver microsomes

physchem = conditions: octanol/water, pH 7.4

Sequence of Proto-oncogene tyrosine-protein kinase ROS (P08922 28-2347 G2032R limits assumed): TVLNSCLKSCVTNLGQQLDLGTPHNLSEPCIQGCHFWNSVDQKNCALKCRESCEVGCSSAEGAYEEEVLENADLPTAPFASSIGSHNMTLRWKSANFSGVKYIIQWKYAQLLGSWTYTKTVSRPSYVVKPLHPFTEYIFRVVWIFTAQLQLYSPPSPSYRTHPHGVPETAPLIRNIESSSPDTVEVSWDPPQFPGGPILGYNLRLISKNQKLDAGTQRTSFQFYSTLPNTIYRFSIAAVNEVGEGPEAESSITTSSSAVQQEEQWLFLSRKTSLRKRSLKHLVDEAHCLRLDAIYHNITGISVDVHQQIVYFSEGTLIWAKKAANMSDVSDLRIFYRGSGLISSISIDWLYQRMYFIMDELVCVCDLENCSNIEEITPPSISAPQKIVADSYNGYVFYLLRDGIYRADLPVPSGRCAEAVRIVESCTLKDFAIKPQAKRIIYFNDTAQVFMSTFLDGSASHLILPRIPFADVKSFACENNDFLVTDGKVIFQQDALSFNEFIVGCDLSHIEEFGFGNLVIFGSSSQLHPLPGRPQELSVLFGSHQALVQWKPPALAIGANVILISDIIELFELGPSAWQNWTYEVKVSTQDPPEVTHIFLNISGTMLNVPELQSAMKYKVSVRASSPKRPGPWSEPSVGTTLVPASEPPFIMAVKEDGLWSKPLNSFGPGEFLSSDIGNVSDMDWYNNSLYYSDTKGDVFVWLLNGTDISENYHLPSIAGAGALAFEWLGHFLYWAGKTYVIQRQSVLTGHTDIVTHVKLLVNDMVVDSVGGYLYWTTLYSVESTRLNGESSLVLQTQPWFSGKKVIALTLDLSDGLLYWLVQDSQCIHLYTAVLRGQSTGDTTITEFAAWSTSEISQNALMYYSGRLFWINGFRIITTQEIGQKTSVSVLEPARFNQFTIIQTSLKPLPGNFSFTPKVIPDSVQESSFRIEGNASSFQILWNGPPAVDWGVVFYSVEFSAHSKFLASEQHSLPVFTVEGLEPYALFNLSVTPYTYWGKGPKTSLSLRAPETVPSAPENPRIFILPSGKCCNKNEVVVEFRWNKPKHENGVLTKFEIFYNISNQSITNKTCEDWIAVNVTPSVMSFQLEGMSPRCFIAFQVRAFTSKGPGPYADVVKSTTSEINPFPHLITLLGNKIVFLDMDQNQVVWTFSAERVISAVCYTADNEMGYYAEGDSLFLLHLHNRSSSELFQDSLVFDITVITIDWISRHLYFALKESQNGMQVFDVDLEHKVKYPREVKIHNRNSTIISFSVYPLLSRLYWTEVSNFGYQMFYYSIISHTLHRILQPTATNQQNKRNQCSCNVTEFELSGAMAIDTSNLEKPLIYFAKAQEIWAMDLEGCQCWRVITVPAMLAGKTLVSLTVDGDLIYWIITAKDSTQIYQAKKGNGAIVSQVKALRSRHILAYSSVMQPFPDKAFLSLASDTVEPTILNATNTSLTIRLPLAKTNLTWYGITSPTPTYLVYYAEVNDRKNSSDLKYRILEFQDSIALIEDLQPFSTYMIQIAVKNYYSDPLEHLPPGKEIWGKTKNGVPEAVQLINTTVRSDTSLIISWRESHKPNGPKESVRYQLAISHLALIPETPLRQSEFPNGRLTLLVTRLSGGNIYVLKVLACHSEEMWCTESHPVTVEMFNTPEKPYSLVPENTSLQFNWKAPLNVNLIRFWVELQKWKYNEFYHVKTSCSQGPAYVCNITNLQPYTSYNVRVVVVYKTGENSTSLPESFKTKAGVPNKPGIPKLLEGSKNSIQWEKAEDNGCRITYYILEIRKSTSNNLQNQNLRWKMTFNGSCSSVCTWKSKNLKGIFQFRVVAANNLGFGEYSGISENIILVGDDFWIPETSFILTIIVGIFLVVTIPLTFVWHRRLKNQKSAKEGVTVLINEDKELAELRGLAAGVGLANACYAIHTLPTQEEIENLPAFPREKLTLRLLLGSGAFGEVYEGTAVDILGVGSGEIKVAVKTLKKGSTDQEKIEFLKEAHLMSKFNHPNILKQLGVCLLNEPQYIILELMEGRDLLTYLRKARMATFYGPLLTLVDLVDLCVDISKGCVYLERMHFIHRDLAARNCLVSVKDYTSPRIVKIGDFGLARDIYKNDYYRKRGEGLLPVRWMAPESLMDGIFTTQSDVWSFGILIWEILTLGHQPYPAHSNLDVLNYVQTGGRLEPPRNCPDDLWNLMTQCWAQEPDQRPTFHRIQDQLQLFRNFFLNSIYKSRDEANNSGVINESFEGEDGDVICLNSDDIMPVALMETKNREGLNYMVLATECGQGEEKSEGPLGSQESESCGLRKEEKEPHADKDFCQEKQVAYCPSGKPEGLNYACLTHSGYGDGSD

SMILES: C[C@H]1Oc2cc(cnc2N)-c2c(nn(C)c2C#N)CN(C)C(=O)c2ccc(F)cc21 [LORLATINIB]
Kp uu (in vivo [1]): 0.21 | Papp B→A (in vitro [2]): 28 ×10⁻⁶ cm/s | Papp A→B (in vitro [3]): 19.3 ×10⁻⁶ cm/s | Kp uu (in vivo [4]): 0.31

Ki [5]: > 3 µM
SMILES: CCc1cc2c(cc1N1CCC(N3CCOCC3)CC1)C(C)(C)c1[nH]c3cc(C#N)ccc3c1C2=O [ALECTINIB]

Papp [6]: 8.1 ×10⁻⁶ cm/s | Papp [7]: 28.3 ×10⁻⁶ cm/s | CLint scaled (in vitro [8]): 8.6 mL/min/kg | logD (physchem): 2.2
SMILES: Cc1[nH][n+](C)c2c1-c1cnc(N)c(c1)O[C@H](C)c1cc(F)ccc1C(=O)N(C)C2
